The values below come from patent US9394268B2, “(E)-1-(5-methoxy-2,2-dimethyl-2H-chromen-8-yl)-3-(4-methoxyphenyl)prop-2-en-1-one and analogs thereof, as well as preparation method and use thereof” (Sichuan University, priority 2012, dated 2016).

The test system of data set [1] is B16F10 cells. Briefly: Malignant melanoma B16 tumor xenograft study. The data set is classed as in vivo, C57 mice. As to conditions: 5, 10 and 15 mg/kg intravenous once every other day for seven times; vs control P<0.01. As for the experimental part: In Vivo Antitumor Activity (1) In Malignant Melanoma B16 Tumor Xenograft Study of Millepachine
Six-week-old female mice were obtained from Chinese Academy of Medical Science (Beijing, China). B16F10 cells (5×10^5 in 100 μl saline) were injected subcutaneously into the right flanks of C57 mice. When the tumor reached about 100 mm^3, mice were selected and randomly divided into four groups including control and three compounds-treated groups. The animals were intravenous injection with Millepachine (5, 10 and 15 mg/kg) or vehicle once every other day for seven times. Tumor burden was measured every 2 or 3 days with a caliper (calculated volume [mm^3]=π/6×length×width×width). After treatment, mice were killed tumors were collected and weighted.

The subject of another data set is HeLa-C3 cells. As to conditions: background statement; cited from earlier work.
Data set [2] relates to several cancer cell lines. The settings on record: background statement; cited from earlier work.
For the next data set, the system named is HT29. Briefly: Cell proliferative assay (MTT), HT29. The class given is cell-based. As to conditions: Homo sapiens, HT-29, 72 h incubation, read-out: IC50s HT29. In a few lines:
(§1)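 MTT read at 590 nm after 72 h compound exposure; cells pre-incubated 24 h post-seeding. IC50 = mean±SEM from dose-response curves, n≥3 independent experiments.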

The next data set has as its system tumor cells. As to the kind of experiment: Cell proliferative assay (MTT), summary over tumor cells. The data set is classed as cell-based. The settings on record: summary in words of Table 1, colon, liver, leukemia lines. As for the experimental part:
The synthesized compounds were evaluated for their cytotoxin activity against suspended tumor cells. These cells were seeded on 96-well plates and incubated for 24 h. Selected compounds were added at various doses and incubated for 72 h, MTT was then added, and the absorbance was measured at a wavelength of 590 nm. IC50 values are expressed as the mean±SEM from the dose-response curves of at least three independent experiments.

In a further data set the test system is HepG2. As to the kind of experiment: Cell proliferative assay (MTT), HepG2. The class given is cell-based. As to conditions: Homo sapiens, 72 h incubation, read-out: IC50s HepG2. In a few lines: as §1
Data set [3] has as its system B16F10 cells. As to the kind of experiment: Malignant melanoma B16-induced lung metastasis. The class given is in vivo, C57 mice. The settings on record: 7.5 and 15 mg/kg intravenous once every other day for seven times. The protocol: (2) The Effect of Millepachine on the Malignant Melanoma B16-Induced Lung Metastasis
Six-week-old female mice were obtained from Chinese Academy of Medical Science (Beijing, China). B16F10 cells (5×10^5 in 100 μl saline) were injected intravenous into the caudal vein of C57 mice. The animals were intravenous injection with Millepachine (7.5 and 15 mg/kg) or vehicle once every other day for seven times after incubation of cell. After stop treatment for 20 days, mice were killed and lung metastasis was observed.

The subject of a further data set is K562. As to the kind of experiment: Cell proliferative assay (MTT), K562. The data set is classed as cell-based. As to conditions: Homo sapiens, 72 h incubation, read-out: IC50s K562. In a few lines:
as §1

Another data set relates to HCT116. Briefly: Cell proliferative assay (MTT), HCT116. The data set is classed as cell-based. The settings on record: Homo sapiens, HCT-116, 72 h incubation, read-out: IC50s HCT116. Put shortly: as §1
For a further data set, the system named is SW620. Briefly: Cell proliferative assay (MTT), SW620. The class given is cell-based. As to conditions: Homo sapiens, SW-620, 72 h incubation, read-out: IC50s SW620. Put shortly: as §1
Data set [4] deals with HepG2 cells. Briefly: Human hepatocarcinoma HepG2 xenograft (SKLBC-45 study). The data set is classed as in vivo, Balb/c nude mice. The settings on record: 2.5, 5, 10, 20 mg/kg intravenous every three days for eight times; vs vehicle control. As for the experimental part:
(5) In Vivo Anti-Tumor Activity of SKLBC-45 on Human Hepatocarcinoma HepG2 Xenograft
Six-week-old Balb/c nude mice were obtained from Chinese Academy of Medical Science (Beijing, China). HepG2 cells (10^7 in 100 μl saline) were injected subcutaneously into the right flanks of the mice. 14 days after cell injection, seventy mice were selected and randomly divided into seven groups including saline control, vehicle control, four doses of SKLBC-45 (2.5, 5, 10, 20 mg/kg) and positive control Adriamycin (5 mg/kg). The animals were intravenously injected with saline, SKLBC-45, adriamycin or vehicle every three days for eight times. Tumor burden and animal body weight was measured every 2 or 3 days. The survival rate was also recorded. After treatment, mice were killed and tumors were collected and weighted.

In the next data set the test system is A375. Briefly: Cell proliferative assay (MTT), A375. The data set is classed as cell-based. The settings on record: Homo sapiens, A-375, 72 h incubation, read-out: IC50s A375. Put shortly: as §1
Another data set relates to SMMC-7221. As to the kind of experiment: Cell proliferative assay (MTT), SMMC-7221. The settings on record: 72 h incubation, read-out: IC50s SMMC-7221. The data set is classed as cell-based. In a few lines:
as §1

The subject of a further data set is A549. As to the kind of experiment: Cell proliferative assay (MTT), A549. The data set is classed as cell-based. As to conditions: Homo sapiens, 72 h incubation, read-out: IC50s A549. Put shortly:
as §1

Another data set deals with LO2. Briefly: Cell proliferative assay (MTT), LO2. The class given is cell-based. As to conditions: Homo sapiens, L02, 72 h incubation, read-out: IC50s LO2. In a few lines:
as §1

Data set [5] concerns HepG2 cells. As to the kind of experiment: Human hepatocarcinoma HepG2 xenograft (SKLBC-76 study). The class given is in vivo, Balb/c nude mice. As to conditions: 2.5, 5, 10 mg/kg intravenous every three days for eight times; vs control. The protocol:
(6) In Vivo Anti-Tumor Activity of SKLBC-76 on Human Hepatocarcinoma HepG2 Xenograft
Six-week-old Balb/c nude mice were obtained from Chinese Academy of Medical Science (Beijing, China). HepG2 cells (10^7 in 100 μl saline) were injected subcutaneously into the right flanks of the mice. 14 days after cell injection, fifty mice were selected and randomly divided into five groups including control, three doses of SKLBC-76 (2.5, 5, 10 mg/kg) and positive control taxol (5 mg/kg). The animals were intravenously injected with SKLBC-76 or taxol every three days for eight times. Tumor burden and animal body weight was measured every 2 or 3 days. The survival rate was also recorded. After treatment, mice were killed and tumors were collected and weighted.
For orientation: A xenograft is tissue or cells of one species grown in another, often human tumour cells in immunodeficient mice.

Data set [6] concerns C26 cells. Briefly: C26-tumor bearing mice model (SKLBC-83 study). The class given is in vivo, Balb/c mice. The settings on record: 10 mg/kg intravenous every two days for eight times; vs control. As for the experimental part:
(7) In Vivo Anti-Tumor Activity of SKLBC-83 on C26-Tumor Bearing Mice Model.
Six-week-old Balb/c mice were obtained from Chinese Academy of Medical Science (Beijing, China). C26 cells (3×10^6 in 100 μl saline) were injected subcutaneously into the right flanks of the mice. 10 days after cell injection, thirty mice were selected and randomly divided into three groups including saline control, SKLBC-83 (10 mg/kg) and positive control taxol (5 mg/kg). The animals were intravenously injected with […] or taxol every two days for eight times. Tumor burden and animal body weight was measured every 2 or 3 days. The survival rate was also recorded. After treatment, mice were killed and tumors were collected and weighted.

Data set [7] deals with C26 cells. Briefly: C26-tumor bearing mice model (seven-compound study). The data set is classed as in vivo, Balb/c mice. The settings on record: 10 mg/kg intravenous every two days for eight times; vs control. As for the experimental part:
(8) In Vivo Anti-Tumor Activity of SKLBC-45, SKLBC-68, SKLBC-74, SKLBC-75, SKLBC-76, SKLBC-79, SKLBC-80 on C26-Tumor Bearing Mice Model.
Six-week-old Balb/c mice were obtained from Chinese Academy of Medical Science (Beijing, China). C26 cells (3×10^6 in 100 μl saline) were injected subcutaneously into the right flanks of the mice. 10 days after cell injection, when the average tumor volume reached ˜60 mm^3. Fifty-four mice were selected and randomly divided into nine groups including saline control, seven compounds and positive control taxol (5 mg/kg). The treatment started one day later. The animals were intravenously injected with SKLBC-45, SKLBC-68, SKLBC-74, SKLBC-75, SKLBC-76, SKLBC-79, SKLBC-80 (all 10 mg/kg) or taxol every two days for eight times. Tumor burden and animal body weight was measured every 2 or 3 days. The survival rate was also recorded. After treatment, mice were killed and tumors were collected and weighted. The results were shown in FIGS. 15, 16, 17, 18, 19, 20 and 21.

Structures are written as SMILES. Entries after “also recorded” stand apart in the source; their conditions may differ. Bounds are passed on as bounds.

For the compound `COc1ccc(/C=C/C(=O)c2ccc(OC)c3c2OC(C)(C)C=C3)cc1` [Millepachine, (E)-1-(5-methoxy-2,2-dimethyl-2H-chromen-8-yl)-3-(4-methoxyphenyl)prop-2-en-1-one], in the data set on B16F10 cells [1], the “survivor time of tumor-bearing mice” value is reported as “prolong the survivor time”. Also, in the data set on B16F10 cells [1], the tumor growth entry is listed as “suppress tumor growth”. Besides, in the data set with HeLa-C3 cells, the “apoptotic effects against cancer cells” value is “significant cytotoxic and apoptotic effects”. The “cytotoxic effects against cancer cells” value in data set [2] was “significant cytotoxic and apoptotic effects”. For the same compound, the IC50 amounted to 3290 nM in the data set on HT29; 2610 nM in the data set with HepG2; 4560 nM in the data set on K562; 4660 nM in the data set with HCT116; 760 nM in the data set with SW620. Besides, the “inhibitory activity against tumor cells” value with tumor cells is given as “better inhibitory activity”; in the data set on tumor cells (listed as SKLBC-1), “best inhibitory activity”. Further, the lung metastasis result in the data set on B16F10 cells [3] is given as “dose-dependently inhibited; also recorded: significantly inhibited”.

Turning to `COc1ccc(C(=O)/C=C/c2ccc([N+](=O)[O-])cc2)c2c1C=CC(C)(C)O2` [SKLBC-17, (E)-1-(5-methoxy-2,2-dimethyl-2H-chromen-8-yl)-3-(4-nitrophenyl)prop-2-en-1-one], the IC50 in the data set on HT29 is 3730 nM; with HepG2 it was 2610 nM; with K562, 7770 nM; in the data set with HCT116 it was above 10000 nM; with SW620, 3520 nM. Also, the “inhibitory activity against tumor cells” value in the data set on tumor cells was “better inhibitory activity”.

`COc1ccc(C(=O)/C=C/c2cccc([N+](=O)[O-])c2)c2c1C=CC(C)(C)O2` [SKLBC-18, (E)-1-(5-methoxy-2,2-dimethyl-2H-chromen-8-yl)-3-(3-nitrophenyl)prop-2-en-1-one]: the IC50 in the data set on HT29 came to 4260 nM; in the data set with HepG2, 2830 nM; with K562 it was 5870 nM; in the data set with HCT116 it was 8050 nM; in the data set with SW620, 4090 nM. For the same compound, the “inhibitory activity against tumor cells” value in the data set on tumor cells is “better inhibitory activity”.

`COc1ccc(/C=C/C(=O)c2ccc(OC)c3c2OC(C)(C)C=C3)cc1O` [SKLBC-28, (E)-3-(3-hydroxy-4-methoxyphenyl)-1-(5-methoxy-2,2-dimethyl-2H-chromen-8-yl)prop-2-en-1-one]: the IC50 in the data set with HT29 came to 1470 nM; in the data set with HepG2 it was 780 nM; in the data set with K562, 3550 nM; in the data set on HCT116, 1630 nM; in the data set on SW620, 670 nM. For the same compound, the “inhibitory activity against tumor cells” value with tumor cells is “better inhibitory activity”.

Turning to `COc1ccc(C(=O)/C=C/c2ccccn2)c2c1C=CC(C)(C)O2` [SKLBC-33, (E)-1-(5-methoxy-2,2-dimethyl-2H-chromen-8-yl)-3-(pyridin-2-yl)prop-2-en-1-one], the IC50 is 2120 nM in the data set on HT29; 5760 nM with HepG2; 5400 nM in the data set with K562; above 10000 nM in the data set on HCT116; 5000 nM with SW620. The “inhibitory activity against tumor cells” value with tumor cells is listed as “better inhibitory activity”.

`CCC(=O)Oc1ccc(C(=O)/C=C/c2ccc(N(CC)CC)cc2)c2c1C=CC(C)(C)O2` [SKLBC-45, (E)-8-(3-(4-(diethylamino)phenyl)acryloyl)-2,2-dimethyl-2H-chromen-5-yl propionate]: in the data set on HepG2 cells [4], the average tumor weight entry was “significantly lower”. Moreover, the growth of tumor entry in the data set on HepG2 cells [4] was “significantly inhibited”. Moreover, the IC50 in the data set on A375 came out at 620 nM; in the data set with SMMC-7221, 610 nM; with HepG2, 148 nM; in the data set with A549, 360 nM; in the data set with K562, 522 nM; with LO2, 20000 nM. Further, the “inhibitory activity against tumor cells” value in the data set on tumor cells is “better inhibitory activity; also recorded: best inhibitory activity”.

As for `CCC(=O)Oc1cc(/C=C/C(=O)c2ccc(OC)c3c2OC(C)(C)C=C3)ccc1OC` [SKLBC-76, (E)-2-methoxy-5-(3-(5-methoxy-2,2-dimethyl-2H-chromen-8-yl)-3-oxoprop-1-en-1-yl)phenyl propionate], the average tumor weight result in the data set with HepG2 cells [5] is given as “significantly lower”. The growth of tumor result in the data set on HepG2 cells [5] was “significantly inhibited”. The IC50 with A375 was 443 nM; in the data set with SMMC-7221, 2150 nM; in the data set on HepG2 it was 103 nM; in the data set with A549, 475 nM; in the data set with K562, 164 nM; in the data set on LO2 it was above 10000 nM.

`COc1ccc(/C=C/C(=O)c2ccc(OC)c3c2OC(C)(C)C=C3)cc1N` [SKLBC-83, (E)-3-(3-amino-4-methoxyphenyl)-1-(5-methoxy-2,2-dimethyl-2H-chromen-8-yl)prop-2-en-1-one]: the IC50 in the data set with A375 came to 111 nM; in the data set on SMMC-7221, 278 nM; in the data set on HepG2, 42 nM; in the data set on A549 it was 285 nM; in the data set on K562, 246 nM; in the data set on LO2, 8500 nM. The average tumor weight result with C26 cells [6] and in the data set with C26 cells [7] was “significantly lower” each time. The growth of tumor entry in the data set with C26 cells [6] and in the data set on C26 cells [7] was “significantly inhibited” each time.
